Laboratory results published in PubChem BioAssay (NCI).
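Dose response: 5 concentrations. Exposure: 48 h. Format: 96-well plates. Endpoint: linear interpolation; highest concentration if not reached. GI50: concentration for 50% inhibition of growth. At the TGI there is no net growth.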

Legend:
Assay in all cases: growth of human tumour cells (NCI), 48 h
SF-539 CNS = system: SF-539 CNS
HT29 colon = system: HT29 colon
SN12C renal = system: SN12C renal
A549 NSCLC = system: A549 NSCLC
IGROV1 ovarian = system: IGROV1 ovarian
KM12 colon = system: KM12 colon
HCC-2998 colon = system: HCC-2998 colon
K-562 leukemia = system: K-562 leukemia
M14 melanoma = system: M14 melanoma
A498 renal = system: A498 renal
TK-10 renal = system: TK-10 renal

## Nc1ccn(C2C=C(CO)C(O)C2O)c(=O)c1 (stereo unspecified)
SF-539 CNS
  TGI: > 625 µM
HT29 colon
  TGI: > 625 µM
SN12C renal
  TGI: > 625 µM
A549 NSCLC
  TGI: > 625 µM
IGROV1 ovarian
  TGI: > 625 µM
KM12 colon
  TGI: > 625 µM
HCC-2998 colon
  TGI: > 625 µM

## O=C(Nc1nc2ccc([N+](=O)[O-])cc2s1)C(=O)C(C(=O)c1ccccc1F)C1OC(=O)c2ccccc21 (stereo unspecified)
SF-539 CNS
  TGI: 48.3 µM
HT29 colon
  TGI: > 100 µM
K-562 leukemia
  TGI: > 100 µM
SN12C renal
  TGI: > 100 µM
A549 NSCLC
  TGI: > 100 µM
IGROV1 ovarian
  TGI: > 100 µM
KM12 colon
  TGI: > 100 µM
HCC-2998 colon
  TGI: 84.2 µM
M14 melanoma
  TGI: > 100 µM
A498 renal
  TGI: > 100 µM
TK-10 renal
  TGI: > 100 µM

## CCN(CC)c1ccc2cc(C(=O)Nc3ccc4[nH]c(C(=O)N5C[C@@H](CCl)c6c5cc(OC(=O)Nc5ccccc5)c5[nH]cc(C)c65)cc4c3)oc2c1
SF-539 CNS
  TGI: 796 µM
HT29 colon
  TGI: > 1000 µM
K-562 leukemia
  GI50: 278 µM
  TGI: > 1000 µM
SN12C renal
  TGI: > 1000 µM
A549 NSCLC
  GI50: 147 µM
  TGI: > 1000 µM
IGROV1 ovarian
  GI50: 914 µM
  TGI: > 1000 µM
KM12 colon
  TGI: > 1000 µM
HCC-2998 colon
  TGI: > 1000 µM
A498 renal
  TGI: 0.000864 µM

## N#C[C@H](OC1OC(COC2OC(CO)C(O)C(O)C2O)C(O)C(O)C1O)c1ccccc1 (stereo partly specified)
SF-539 CNS
  TGI: > 250 µM
HT29 colon
  TGI: > 250 µM
K-562 leukemia
  TGI: > 250 µM
SN12C renal
  TGI: > 250 µM
A549 NSCLC
  TGI: > 250 µM
IGROV1 ovarian
  TGI: > 250 µM
KM12 colon
  TGI: > 250 µM
HCC-2998 colon
  TGI: > 250 µM
A498 renal
  TGI: > 11.6 µM

## O=c1ssc(=Nc2ccccc2)n1-c1ccccc1
SF-539 CNS
  TGI: > 100 µM
HT29 colon
  TGI: > 100 µM
K-562 leukemia
  TGI: 70.2 µM
SN12C renal
  TGI: 41.1 µM
A549 NSCLC
  TGI: > 100 µM
KM12 colon
  TGI: > 100 µM
HCC-2998 colon
  TGI: > 100 µM
M14 melanoma
  TGI: 48.3 µM
A498 renal
  TGI: > 100 µM
TK-10 renal
  TGI: > 100 µM

## CCCCn1c(N)c(-c2nc3ccccc3o2)sc1=S
SF-539 CNS
  TGI: 23.2 µM
HT29 colon
  TGI: 78 µM
K-562 leukemia
  TGI: > 100 µM
SN12C renal
  TGI: 54.3 µM
A549 NSCLC
  TGI: 29.8 µM
IGROV1 ovarian
  TGI: 44.1 µM
KM12 colon
  TGI: > 100 µM
HCC-2998 colon
  TGI: > 100 µM
M14 melanoma
  TGI: > 100 µM
A498 renal
  TGI: 98.8 µM
TK-10 renal
  TGI: 39.3 µM

## Cn1c(=O)c2[nH]c(CCNC(=O)c3ccccc3)nc2n(C)c1=O
HT29 colon
  TGI: > 100 µM
K-562 leukemia
  TGI: > 100 µM
SN12C renal
  TGI: > 100 µM
A549 NSCLC
  TGI: > 100 µM
IGROV1 ovarian
  TGI: > 100 µM
KM12 colon
  TGI: > 100 µM
HCC-2998 colon
  TGI: > 100 µM
M14 melanoma
  TGI: > 100 µM
A498 renal
  TGI: > 100 µM
TK-10 renal
  TGI: > 100 µM

## Cc1ccc(C2OC(COCc3ccc(Cl)cc3)C(OCc3ccc(Cl)cc3)C2O)cc1 (stereo unspecified)
SF-539 CNS
  TGI: 36.2 µM
HT29 colon
  TGI: 26.2 µM
K-562 leukemia
  TGI: > 100 µM
SN12C renal
  TGI: 13.1 µM
A549 NSCLC
  TGI: 30.1 µM
IGROV1 ovarian
  TGI: 35.5 µM
KM12 colon
  TGI: 71.2 µM
HCC-2998 colon
  TGI: 72.7 µM
TK-10 renal
  TGI: 29.7 µM

## C[N+](C)(C)CCc1ccccc1
SF-539 CNS
  TGI: > 100 µM
HT29 colon
  TGI: > 100 µM
K-562 leukemia
  TGI: > 100 µM
SN12C renal
  TGI: > 100 µM
A549 NSCLC
  TGI: > 100 µM
IGROV1 ovarian
  TGI: > 100 µM
KM12 colon
  TGI: > 100 µM
HCC-2998 colon
  TGI: > 100 µM
M14 melanoma
  TGI: > 100 µM
A498 renal
  TGI: > 100 µM
TK-10 renal
  TGI: > 100 µM

## Cc1cc(S(=O)(=O)Nc2nc3ccccc3nc2-c2cccc([N+](=O)[O-])c2)c(S)cc1Cl
SF-539 CNS
  TGI: 38.1 µM
HT29 colon
  TGI: 34.2 µM
K-562 leukemia
  TGI: > 100 µM
SN12C renal
  TGI: 78.5 µM
A549 NSCLC
  TGI: 38 µM
IGROV1 ovarian
  TGI: 30.4 µM
KM12 colon
  TGI: 31.3 µM
HCC-2998 colon
  TGI: 39.1 µM
M14 melanoma
  TGI: 35.1 µM
A498 renal
  TGI: 29.1 µM
TK-10 renal
  TGI: > 100 µM

## O=C1OC2(CC1C1(O)C3CC4CC(C3)CC1C4)C1CC3CC(C1)CC2C3 (stereo unspecified)
SF-539 CNS
  TGI: > 100 µM
HT29 colon
  TGI: > 100 µM
K-562 leukemia
  TGI: > 100 µM
SN12C renal
  TGI: > 100 µM
A549 NSCLC
  TGI: > 100 µM
IGROV1 ovarian
  TGI: > 100 µM
KM12 colon
  TGI: > 100 µM
M14 melanoma
  TGI: > 100 µM
A498 renal
  TGI: 84.5 µM
TK-10 renal
  TGI: > 100 µM

## O=C1C(Cl)=C(Nc2ccc(S(=O)(=O)O)cc2)C(=O)c2ccccc21
SF-539 CNS
  TGI: 57.9 µM
HT29 colon
  TGI: > 100 µM
K-562 leukemia
  TGI: 94.2 µM
A549 NSCLC
  TGI: 58.7 µM
IGROV1 ovarian
  TGI: > 100 µM
KM12 colon
  TGI: 56.3 µM
HCC-2998 colon
  TGI: > 100 µM
M14 melanoma
  TGI: 47.1 µM
TK-10 renal
  TGI: 42.9 µM

## COc1nc(=O)n(COC(CO)CN2C(=O)c3ccccc3C2=O)cc1Cc1cccc(OCc2ccccc2)c1 (stereo unspecified)
SF-539 CNS
  TGI: 34.2 µM
HT29 colon
  TGI: > 100 µM
K-562 leukemia
  TGI: 60.1 µM
SN12C renal
  TGI: 58.5 µM
A549 NSCLC
  TGI: 75.8 µM
IGROV1 ovarian
  TGI: 58.8 µM
KM12 colon
  TGI: 91.3 µM
HCC-2998 colon
  TGI: 43 µM
M14 melanoma
  TGI: 43.6 µM
TK-10 renal
  TGI: > 100 µM

## CO/N=C(/C)c1ccc(NC(=O)CSc2nnc(-c3ccncc3)n2-c2ccccc2)cc1
HT29 colon
  GI50: > 100 µM
  TGI: > 100 µM
K-562 leukemia
  GI50: > 100 µM
  TGI: > 100 µM
KM12 colon
  GI50: > 100 µM
  TGI: > 100 µM
HCC-2998 colon
  GI50: > 100 µM
  TGI: > 100 µM
M14 melanoma
  GI50: > 100 µM
  TGI: > 100 µM
A498 renal
  GI50: 2.15 µM
  TGI: 8.08 µM

## OCCNCCN1CCN(CCCN2c3ccccc3Sc3ccc(C(F)(F)F)cc32)CC1
SF-539 CNS
  TGI: 34.5 µM
HT29 colon
  TGI: 28.3 µM
SN12C renal
  TGI: 33.9 µM
A549 NSCLC
  TGI: 48.6 µM
IGROV1 ovarian
  TGI: > 100 µM
KM12 colon
  TGI: 45.1 µM
HCC-2998 colon
  TGI: 44.7 µM
M14 melanoma
  TGI: 30.2 µM
A498 renal
  TGI: > 100 µM
TK-10 renal
  TGI: 37.2 µM

## O=C1C=CC2(C=C1)O[C@H](Cc1ccccc1)[C@@H](Cc1ccccc1)O2
SF-539 CNS
  TGI: 1.02 µM
HT29 colon
  TGI: 2.81 µM
K-562 leukemia
  TGI: 5.58 µM
SN12C renal
  TGI: 3.01 µM
A549 NSCLC
  TGI: 18.7 µM
IGROV1 ovarian
  TGI: 0.583 µM
KM12 colon
  TGI: 4.51 µM
HCC-2998 colon
  TGI: 11.1 µM
M14 melanoma
  TGI: 2.15 µM
A498 renal
  TGI: 16.6 µM
TK-10 renal
  TGI: 1.66 µM

## C=CC1(NC(=O)c2ccccc2)CCC(C(C)(C)C)CC1 (stereo unspecified)
SF-539 CNS
  TGI: > 100 µM
HT29 colon
  TGI: 55 µM
K-562 leukemia
  TGI: > 100 µM
SN12C renal
  TGI: > 61.4 µM
A549 NSCLC
  TGI: > 100 µM
IGROV1 ovarian
  TGI: > 100 µM
KM12 colon
  TGI: > 100 µM
HCC-2998 colon
  TGI: > 100 µM
A498 renal
  TGI: > 100 µM

## CCCNC(=O)C(C)C1CCC2(C)C=CC(=O)C(C)=C2C1O (stereo unspecified)
SF-539 CNS
  TGI: > 100 µM
HT29 colon
  TGI: > 100 µM
K-562 leukemia
  TGI: > 100 µM
SN12C renal
  TGI: > 100 µM
A549 NSCLC
  TGI: > 100 µM
IGROV1 ovarian
  TGI: > 100 µM
KM12 colon
  TGI: > 100 µM
HCC-2998 colon
  TGI: > 100 µM
A498 renal
  TGI: > 100 µM
